In experiment [1] the target is T1, Monoamineoxidase B type human-derived enzyme (Homo sapiens, UniProt P27338).
T1 sequence (P27338 1-520): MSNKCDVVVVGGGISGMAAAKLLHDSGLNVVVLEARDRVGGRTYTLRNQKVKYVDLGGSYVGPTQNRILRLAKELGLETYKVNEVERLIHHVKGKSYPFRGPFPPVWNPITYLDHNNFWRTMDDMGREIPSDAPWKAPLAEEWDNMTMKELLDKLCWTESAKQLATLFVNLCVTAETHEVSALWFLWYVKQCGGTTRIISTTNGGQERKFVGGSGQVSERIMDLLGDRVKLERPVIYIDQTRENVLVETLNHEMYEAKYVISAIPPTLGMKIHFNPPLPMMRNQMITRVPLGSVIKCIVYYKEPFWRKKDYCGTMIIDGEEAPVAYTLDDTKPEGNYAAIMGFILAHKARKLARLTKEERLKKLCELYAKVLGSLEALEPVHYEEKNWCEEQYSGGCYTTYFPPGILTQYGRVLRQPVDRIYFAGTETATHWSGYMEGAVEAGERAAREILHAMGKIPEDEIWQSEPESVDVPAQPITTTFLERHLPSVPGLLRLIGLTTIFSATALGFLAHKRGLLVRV
The experiment in a line: Inhibitory effects on the activity of MAO-B (Amplex Red fluorescence, benzylamine substrate). The following applies: for inhibition at 0.01 µM: read-out: Inhibitory effects (%) on the activity of MAO-B. Format: biochemical. An outline of the steps: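 Human MAO-B, diluted 1:200 in 0.05 M sodium phosphate pH 7.4, was pre-incubated with compound for 30 min. It was then mixed 1:1 with working buffer holding 400 μM Amplex Red, 2 U/ml HRP and 2 mM benzylamine (working-buffer levels). Fluorescence (Ex 563/Em 587 nm) was read over 30 min.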

In the next experiment the test system is MPTP-induced mouse model. The experiment in a line: Tail suspension test in MPTP-induced mouse model of Parkinson's disease. In kind it is in vivo. The following applies: administration concentration 10 (10 mg/kg), oral, 7 days after MPTP, % of control group (Sham); for response vs control in vivo at 10 mg/kg: Mus musculus, 168 h, read-out: Mobility (%). On the procedure: A. MPTP (1-methyl-4-phenyl-1,2,3,6-tetrahydropyridine) and drug treatment MPTP (20 mg/kg, free base; Sigma, St. louis, Mo.) was administered to an 8 week old (20-25 g) male C57BL/6 test mouse intraperitoneally three times a day at the interval of 2 hours to construct a model (Breidert et al., 2002; Lichuan Yang, Shuei Sugama, Jason W. Chirichigno, Jason Gregorio, Stefan Lorenzl, Dong H. Shin, Susan E. Browne, Yoshinori Shimizu, Tong H. Joh, M. Flint Beal, l and David S. Alber. (2003) Minocycline Enhances MPTP Toxicity to Dopaminergic Neurons. J Neurosci Res. 74:278-285). In order to observe the protective effects of the compound as a candidate drug, the compound was dissolved in a solution containing 10% dimethylsulfoxide (DMSO), 10% Cremophor, and 40% polyethyleneglycol (PEG), […] treatment. Rasagiline as a control drug was also dissolved in the same solution, and the resulting solution was administered at the same doses in the same manner as above. A control group (Sham) in which MPTP was not administered was constructed by intraperitoneally administering saline solution to the group instead of MPTP in the same manner as above and orally administering the same solution 1 hour before and after PBS treatment.
A tail suspension test was performed in order to measure the induction degree of behavioral dysfunctions in accordance with administration of MPTP and a drug. At 7 days after administration of the drug, a round stainless steel rod (width: 1 cm) was affixed to a cage (width: 16 cm, height: 40 cm) 35 cm above from the surface shielded by black wooden structures in the left and right sides to perform experiments. The time for which the animal moved for a total period of 6 minutes was measured in seconds to evaluate the drug action.
Mobility refers to an expression of the measurement of the time for which the animal moved with its tail hung high as a percentage compared to the measurement of a control group.

The test system of experiment [2] is dopamine (DA) in the striatum of a MPTP-treated mouse. In words: Combined administration with Levodopa group: dopamine in the striatum of MPTP-treated mouse (HPLC). Format: in vivo. The following applies: compound 1 mg/kg PO co-administered with Levodopa group (Levodopa 50 mg/kg + Benzerazide 25 mg/kg IP); for Concentration of dopamine compared to a control group %, 1 hr: 1 hr after Levodopa; for Concentration of dopamine compared to a control group %, 3 hr: 3 hr after Levodopa. On the procedure: MPTP (20 mg/kg, free base; Sigma, St. louis, Mo.) was administered to an 8 week old (20-25 g) male C57BL/6 test mouse intraperitoneally at the interval of 2 hours to construct a model.
In order to observe the effects of combined administration of a compound of the present invention and Levodopa, the compound of the present invention was dissolved in a solution containing 0.02 ml of dimethylsulfoxide (DMSO), 0.02 ml of Cremophor, 0.08 ml of polyethyleneglycol (PEG), and 0.08 ml of physiological saline. The resulting solution was orally administered at doses of 1 mg/kg one week after the MPTP treatment, and a Levodopa group containing Levodopa at 50 mg/kg and Benzerazide at 25 mg/kg was intraperitoneally administered 1 hour later.
A single administration of the Levodopa group in the following Table 4 indicates values resulting from a MPTP (toxin) treatment followed by an administration of the Levodopa group compared to the treatment results of a Levodopa single administration group of Levodopa and Benzerazide.
At 1 hour and 3 hours after administration of Levodopa, the animals were sacrificed by cervical vertebra dislocation and the brain tissues were immediately isolated from the animals. 0.5 me of iced solution for HPLC analysis (0.1 M perchloric acid and 0.1 mM EDTA) was added to a striatum obtained from the isolated brain tissues, and an ultrasonic grinder was used to prepare a tissue homogenate. The tissue homogenate was centrifuged at 12,000 rpm for 15 minutes, and its supernatant was filtered through nitrocellulose membrane filter (0.2 um, Millipore). For HPLC analysis, uBondapak™ C18 column (4.6×150 mm, particle size 10 μm: Shisheido, Japan) was used, the flow rate of the mobile phase (0.07 M monobasic sodium phosphate, 1 mM sodium octasulfonic acid, 0.1 uM EDTA, 5% acetonitrile, pH 3.2) was maintained at 0.5 me/min, and the electrode potential of the electrochemical detector (CouloChem III, ESA, Japan) was set at 350 mV.

Where two headings read alike, the source gives them in different places.

On to `c1ccc(COc2ccc(-c3cc(CN4CCCC4)on3)cc2)cc1` [Example 148, 3-(4-benzyloxy-phenyl)-5-pyrrolidin-1-ylmethyl-isoxazole], for which, in experiment [1] (treatment concentration 10 nM), the inhibition at 0.01 µM stood at 79%. In addition, in the experiment with MPTP-induced mouse model, the response vs control in vivo at 10 mg/kg is 95.9%.
As for `NC(=O)OCc1cc(-c2ccc(OCc3ccccc3F)cc2)no1` [Example 11, carbamic acid 3-[4-(2-fluoro-benzyloxy)-phenyl]-isoxazol-5-ylmethyl ester], the inhibition at 0.01 µM in experiment [1] (treatment concentration 10 nM) turned out to be 101%. The response vs control in vivo at 10 mg/kg in the experiment on MPTP-induced mouse model stood at 82.2%.
With `NC(=O)OCc1cc(-c2ccc(NCc3ccccc3)cc2)no1` [Example 74, Carbamic acid 3-(4-benzylamino-phenyl)-isoxazol-5-ylmethyl ester], the inhibition at 0.01 µM in experiment [1] amounted to 84.5%. Besides, the response vs control in vivo at 10 mg/kg in the experiment on MPTP-induced mouse model was found to be 96.9%. Besides, in experiment [2], the “Concentration of dopamine compared to a control group %, 1 hr” value (“Concentration … to a control group %, 1 hr” below) amounted to 153.7% and the “Concentration of dopamine compared to a control group %, 3 hr” value (“Concentration … to a control group %, 3 hr” below) stood at 74.7%.
For `NC(=O)OCc1cc(-c2ccc(NCc3cccs3)cc2)no1` [Example 110, carbamic acid 3-{4-[(thiophen-2-ylmethyl)-amino]-phenyl}-isoxazol-5-ylmethyl ester], the inhibition at 0.01 µM in experiment [1] worked out at 80.8%. Besides, the response vs control in vivo at 10 mg/kg with MPTP-induced mouse model came out at 80.7%.
In the case of “[carbamic acid 3-(4-methylsulfanylmethoxy-phenyl)-isoxazol-5-ylmethyl ethyl ester [Example 48]”, in experiment [1] (treatment concentration 10 nM), the “Inhibitory effects (%) on the activity of MAO-B” value was 48.4%. Also, in the experiment with MPTP-induced mouse model, the “Mobility (%)” value came out at 74.6%.
As for `NC(=O)OCc1cc(-c2ccc(NCc3ccoc3)cc2)no1` [Example 111, carbamic acid 3-{4-[(furan-3-ylmethyl)-amino]-phenyl}-isoxazol-5-ylmethyl ester], the inhibition at 0.01 µM in experiment [1] came to 69%. Further, the response vs control in vivo at 10 mg/kg in the experiment on MPTP-induced mouse model turned out to be 78.8%.
Take `Cc1cccc(CNc2ccc(-c3cc(COC(N)=O)on3)cc2)c1` [Example 101, Carbamic acid 3-[4-(3-methyl-benzylamino)-phenyl]-isoxazol-5-ylmethyl ester]: in experiment [1] (treatment concentration 10 nM), the inhibition at 0.01 µM was determined as 80.5%. The response vs control in vivo at 10 mg/kg with MPTP-induced mouse model is 78.3%.
`CCCCOc1ccc(-c2cc(COC(N)=O)on2)cc1` [Example 43, carbamic acid 3-(4-butoxy-phenyl)-isoxazol-5-ylmethyl ester]: the inhibition at 0.01 µM in experiment [1] amounted to 96.8%. In the experiment on MPTP-induced mouse model, the response vs control in vivo at 10 mg/kg was determined as 71%.
With `NC(=O)OCc1cc(-c2ccc(NCc3ccc(F)cc3F)cc2)no1` [Example 81, Carbamic acid 3-[4-(2,4-difluoro-benzylamino)-phenyl]-isoxazol-5-ylmethyl ester], in experiment [1] (treatment concentration 10 nM), the inhibition at 0.01 µM was found to be 91.4%. The response vs control in vivo at 10 mg/kg in the experiment with MPTP-induced mouse model was found to be 72.6%.
Regarding `NC(=O)OCc1cc(-c2ccc(OCc3c(F)cccc3F)cc2)no1` [Example 14, carbamic acid 3-[4-(2,6-difluoro-benzyloxy)-phenyl]-isoxazol-5-ylmethyl ester], the inhibition at 0.01 µM in experiment [1] (treatment concentration 10 nM) amounted to 96%. Besides, in the experiment with MPTP-induced mouse model, the response vs control in vivo at 10 mg/kg was found to be 75.3%.
`NC(=O)OCc1nc(-c2ccc(OCc3ccccc3)cc2)no1` [Example 2, carbamic acid 3-(4-benzyloxy-phenyl)-[1,2,4]oxadiazol-5-ylmethyl ester]: the inhibition at 0.01 µM in experiment [1] came to 95%. In experiment [2], the “Concentration … to a control group %, 1 hr” value was 106.12% and the “Concentration … to a control group %, 3 hr” value is on record as 43.6%.
Regarding `NCCCNC(=O)OCc1cc(-c2ccc(OCc3ccccc3)cc2)no1` [Example 130, (3-amino-propyl)-carbamic acid 3-(4-benzyloxy-phenyl)-isoxazol-5-ylmethyl ester], the inhibition at 0.01 µM in experiment [1] (treatment concentration 10 nM) is 52.9%. Moreover, in experiment [2], the “Concentration … to a control group %, 1 hr” value is 131.9% and the “Concentration … to a control group %, 3 hr” value amounted to 77.0%.
For `O=C(OCc1cc(-c2ccc(OCc3ccccc3)cc2)no1)N1CCOCC1` [Example 127, morpholine-4-carboxylic acid 3-(4-benzyloxy-phenyl)-isoxazol-5-ylmethyl ester] the same measures were 45.3%, 140.7% and 60.4%.
In the case of `NC(=O)OCc1cc(-c2ccc(OCc3cccnc3)cc2)no1` [Example 66, Carbamic acid 3-[4-(pyridin-3-ylmethoxy)-phenyl]-isoxazol-5-ylmethyl ester], in experiment [1], the inhibition at 0.01 µM is 87.3%. The response vs control in vivo at 10 mg/kg with MPTP-induced mouse model worked out at 74.9%.
Turning to `Cc1noc(C)c1COc1ccc(-c2cc(COC(N)=O)on2)cc1` [Example 72, carbamic acid 3-[4-(3,5-dimethyl-isoxazol-4-ylmethoxy)-phenyl]-isoxazol-5-ylmethyl ester], the inhibition at 0.01 µM in experiment [1] (treatment concentration 10 nM) stood at 87.9%. Further, the response vs control in vivo at 10 mg/kg in the experiment on MPTP-induced mouse model was 91.4%.
Take `NC(=O)NCc1cc(-c2ccc(OCc3ccccc3)cc2)no1` [Example 152, [3-(4-benzyloxy-phenyl)-isoxazol-5-ylmethyl]-urea]: the inhibition at 0.01 µM in experiment [1] (treatment concentration 10 nM) is 96.1%. Also, in experiment [2], the “Concentration … to a control group %, 1 hr” value stood at 87.0% and the “Concentration … to a control group %, 3 hr” value worked out at 77.0%.
Take `COc1ccccc1CNc1ccc(-c2cc(COC(N)=O)on2)cc1` [Example 104, Carbamic acid 3-[4-(2-methoxy-benzylamino)-phenyl]-isoxazol-5-ylmethyl ester]: the inhibition at 0.01 µM in experiment [1] (treatment concentration 10 nM) worked out at 89.1%. Besides, the response vs control in vivo at 10 mg/kg in the experiment on MPTP-induced mouse model stood at 82%.
`NC(=O)OCc1cc(-c2ccc(OCSC(F)(F)F)cc2)no1` [Example 58, carbamic acid 3-(4-trifluoromethylsulfanylmethoxy-phenyl)-isoxazol-5-ylmethyl ester]: in experiment [1], the inhibition at 0.01 µM was determined as 88.1%. Further, the response vs control in vivo at 10 mg/kg in the experiment with MPTP-induced mouse model came out at 98.9%.
Take `O=C(OCc1cc(-c2ccc(OCc3ccccc3)cc2)no1)n1ccnc1` [Example 120, Imidazole-1-carboxylic acid 3-(4-benzyloxy-phenyl)-isoxazol-5-ylmethyl ester]: the inhibition at 0.01 µM in experiment [1] (treatment concentration 10 nM) came out at 87.8%. In experiment [2], the “Concentration … to a control group %, 1 hr” value was 148.5% and the “Concentration … to a control group %, 3 hr” value is reported as 53.9%.

For the origin of these results see patent US8828992B2, “Substituted azole derivatives, pharmaceutical composition containing the derivatives, and method for treating Parkinson's disease using the same” (priority 2009, dated 2014).
